The text below walks through data of patent US20240041037A1, “DISINFECTANT AND USE THEREOF” (priority 2021, published 2024).

What all share (assay type): cell-based
One assay has as its system Fungi. In words: Germ content determination (Ph. Eur. 6.8, Chapter 2.6.12) of aqueous walnut shell meal slurry: fungi. As to the method:
(§1) Test Equipment: • A BF 720 incubator is used. • A spiral plater is used as a plating device, with which a predefined volume of the suspension to be checked for germs is applied to the culture medium. For example, an Eddy-Jet 2W spiral plater is used.
(§2) The germ count takes place in the screening by the Envirocheck® system for confirmation according to the Ph Eur.6.8. Chapter 2.6.12.
(§3) Subculturing: • The subculturing is carried out by a spiral plater using a corresponding program, depending on the requirements (for example, in one program, higher germ quantities may be more easily broken down by the gradient of the applied product or, in another program, a greater amount may be applied, which drops the lower determination limit). • One (in the case of double samples, two) fungus culture medium and one bacteria culture medium each are taken for each sample. • Standard total germ count checks are performed with no double determination.
(§4) Neutralization: • A neutralization, if it is to be carried out, takes place using 50% NaOH.
(§5) Incubation: • Bacteria: 2-3 days at 30+/−2° C. in the corresponding incubators; • Yeast/fungus: 3-5 days at room temperature away from light.
(§6) . This amount was maintained at pH 2.9 in the subsequent tests. Following a predefined time span T in minutes, one sample each was collected and incubated for 48 hours in an incubator in order to subsequently determine its germ load. The time span T thus corresponds to the contact time of the disinfectant, in the present case only citric acid.
(§7) The germ count after incubation takes place using the Environcheck® test sticks immediately or in an outside laboratory. For the external check, the product is cooled and stored for at least 1 day at 8° C. and transferred in a polystyrene box.
(§8) The germ content determination is based on the Ph. Eur.6.8—germ content, Chapter 2.6.12
(§9) […]. The sample was then again adjusted to pH 7 using sodium hydroxide solution and incubated in the incubator for 48 hours. The germs in the individual samples were subsequently counted again using the Envirocheck® system internally or using an outside institute by a previously cooled stored product for 1 day.
(§10) . The germ count determination is based on the Ph. Eur. 6.8—Germ content, Chapter 2.6.12

The subject of assay [1] is total germ count of walnut shell meal slurry. In words: Germ content determination (Ph. Eur. 6.8, Chapter 2.6.12) of aqueous walnut shell meal slurry: total germ count. As to the method:
as §1, §2, §4, §5
Following a predefined time span T in minutes, one sample each was collected and incubated for 48 hours in an incubator in order to subsequently determine its germ load.
as §7, §8
The subsequent incubation of the sample took place over 48 hours.
The sample was then again adjusted to pH 7 using sodium hydroxide solution and incubated in the incubator for 48 hours. The germs in the individual samples were subsequently counted again using the Envirocheck® system internally or using an outside institute by a previously cooled stored product for 1 day.
The germ count determination is based on the Ph. Eur. 6.8—Germ content, Chapter 2.6.12

The subject of a further assay is Yeasts. In words: Germ content determination (Ph. Eur. 6.8, Chapter 2.6.12) of aqueous walnut shell meal slurry: yeasts. As to the method:
as §1, §2, §3, §4, §5, §6, §7, §8, §9, §10

In assay [2] the test system is Bacteria (aerobic spore-formers). In words: Germ content determination (Ph. Eur. 6.8, Chapter 2.6.12) of aqueous walnut shell meal slurry: bacteria. The method, then:
as §1, §2, §3, §4, §5, §6, §7, §8, §9, §10

Setting [3] is: pH 2.9, contact time 15 minutes.
Where [4] appears, read: pH 2.9, contact time 30 minutes.
The mark [5] stands for this setting: pH 2.9, contact time 45 minutes.
Setting [6] is: pH 2.9, contact time 60 minutes.

Molecules are shown by their SMILES.

Consider `O=C(O)CC(O)(CC(=O)O)C(=O)O` [citric acid], for which the Fungi was 50 CFU/g or mL in the assay with Fungi (setting [3]), 55 CFU/g or mL in the assay with Fungi (setting [4]), 35 CFU/g or mL with Fungi (setting [5]) and 20 CFU/g or mL in the assay on Fungi (setting [6]). Besides, the “TGC (total germ count)” value in assay [1] (setting [3]) was 250 CFU/g or mL; in assay [1] (setting [4]), 295 CFU/g or mL; in assay [1] (setting [5]), 235 CFU/g or mL. The Yeasts in the assay with Yeasts (setting [3]) is on record as 140 CFU/g or mL; with Yeasts (setting [4]), 140 CFU/g or mL; in the assay on Yeasts (setting [5]), “— (<7 CFU/g or mL)”; in the assay with Yeasts (setting [6]), 35 CFU/g or mL. Moreover, the Bacteria is 60 CFU/g or mL in assay [2] (setting [3]), 100 CFU/g or mL in assay [2] (setting [4]), 200 CFU/g or mL in assay [2] (setting [5]) and 170 CFU/g or mL in assay [2] (setting [6]).
On to `CC(O)C(=O)O` (stereo not shown) [lactic acid], for which the “contact time after which germ load reduction clearly identifiable” value in assay [1] (pH 2.9) is 5 min.
